According to US20230233519A1, “COMBINATION THERAPIES” (MEI Pharma, Inc., priority 2020, published 2023):

Experiments:
[1] = test system: THP-1 childhood AML cells; test: Annexin V-FITC/PI apoptosis flow cytometry, THP-1; format: cell-based, human; conditions: THP-1, 24 h, clinically achievable concentrations
Description: (§1) AML cell lines used as described herein include MOLM-13, MV4-11, and THP-1. MOLM-13 cells are purchased from AddexBio (San Diego, Calif., USA). MV4-11 and THP-1 cell lines are purchased from the American Type Culture Collection (Manassas, Va., USA). The cell lines are cultured in RPMI 1640 with 10-20% fetal bovine serum (Thermo Fisher Scientific, Waltham, Mass., USA), 2 mM L-glutamine, 100 U/mL penicillin, and 100 μg/mL streptomycin. All cells are cultured in a 37° C. humidified atmosphere containing 5% CO2/95% air. The cell lines are authenticated at the Genomics Core at Karmanos Cancer Institute using the Power-Plex 16 System from Promega (Madison, Wis., USA). […]
(§2) Human adult AML cell lines (MOLM-13), human childhood AML cell lines (MV4-11 and THP-1), and cytarabine-resistant (araC-R) acute monocytic leukemia (AMoL) cell lines (U937) are treated with venetoclax and d-cis-3-(4-hydroxyphenyl)-4-(4-hydroxyphenyl)-8-methylchroman-7-ol (Compound A), alone or in combination, and are subject to flow cytometry analysis using Annexin V-fluorescein isothiocyanate (FITC)/propidium iodide (PI) Apoptosis Kit (Beckman Coulter, Brea, Calif.). Results are expressed as percent Annexin V-positive (Annexin V+) cells. […] The extent and direction of the antileukemic interaction between venetoclax and Compound A is determined by calculating the combination index (CI). […]

MOLM-13 AML cells [2] = test: Annexin V-FITC/PI apoptosis flow cytometry, MOLM-13; format: cell-based, human; conditions: MOLM-13, 24 h, clinically achievable concentrations
Description: as §1, §2

[3] = test system: cytarabine resistant (araC-R) U937 acute monocytic leukemia (AMoL) cells; test: Annexin V-FITC/PI apoptosis flow cytometry, araC-R U937; format: cell-based; conditions: araC-R U937, 24 h, clinically achievable concentrations
Description: Human adult AML cell lines (MOLM-13), human childhood AML cell lines (MV4-11 and THP-1), and cytarabine-resistant (araC-R) acute monocytic leukemia (AMoL) cell lines (U937) are treated with venetoclax and d-cis-3-(4-hydroxyphenyl)-4-(4-hydroxyphenyl)-8-methylchroman-7-ol (Compound A), alone or in combination, and are subject to flow cytometry analysis using Annexin V-fluorescein isothiocyanate (FITC)/propidium iodide (PI) Apoptosis Kit (Beckman Coulter, Brea, Calif.). Results are expressed as percent Annexin V-positive (Annexin V+) cells. For the AML/AMoL cell lines, experiments are performed three independent times in triplicate, and the data presented are from one representative experiment. The extent and direction of the antileukemic interaction between venetoclax and Compound A is determined by calculating the combination index (CI). CI<1 indicates synergistic effects, CI=1 indicates additive effects, and CI>1 indicates antagonistic effects. ***indicates p<0.001 compared to control.

[4] = test system: THP-1 childhood AML cells; test: Viable cells (annexin V negative and PI negative) by flow cytometry, THP-1; format: cell-based, human; conditions: THP-1, 24 hr, clinically achievable concentrations
Description: (§3) FIG. 2C depicts the percentage of viable THP-1 childhood AML cells following treatment of THP-1 childhood AML cell lines with venetoclax (VEN) and d-cis-3-(4-hydroxyphenyl)-4-(4-hydroxyphenyl)-8-methylchroman-7-ol (Compound A), alone or in combination, for 24 h. and then subjected to Annexin V-FITC/PI staining and flow cytometry analysis. Viable cells (annexin V negative and PI negative) were gated. Viable cell counts from no drug treatment controls were set at 100%, and the rest of the samples were normalized to the no drug treatment controls. The data were presented as mean percent of viable cells from triplicates with standard errors. […]
as §2

[5] = test system: MV4-11 childhood AML cells; test: Viable cells (annexin V negative and PI negative) by flow cytometry, MV4-11; format: cell-based, human; conditions: MV4-11, 24 hr, clinically achievable concentrations
Description: as §3, with “2B” for “2C”, “MV4-11” for “THP-1”
as §2

MOLM-13 AML cells [6] = test: Viable cells (annexin V negative and PI negative) by flow cytometry, MOLM-13; format: cell-based, human; conditions: MOLM-13, 24 hr, clinically achievable concentrations
Description: FIG. 2A depicts the percentage of viable MOLM-13 AML cells following treatment of MOLM-13 AML cell lines with venetoclax (VEN) and d-cis-3-(4-hydroxyphenyl)-4-(4-hydroxyphenyl)-8-methylchroman-7-ol (Compound A), alone or in combination, for 24 h and then subjected to Annexin V-FITC/PI staining and flow cytometry analysis. Viable cells (annexin V negative and PI negative) were gated. Viable cell counts from no drug treatment controls were set at 100%, and the rest of the samples were normalized to the no drug treatment controls. The data were presented as mean percent of viable cells from triplicates with standard errors.
AML cell lines used as described herein include MOLM-13, MV4-11, and THP-1. […]
as §2

[7] = test system: MV4-11 childhood AML cells; test: Annexin V-FITC/PI apoptosis flow cytometry, MV4-11; format: cell-based, human; conditions: MV4-11, 24 h, clinically achievable concentrations
Description: as §1, §2

## Cc1c(O)ccc2c1OC[C@@H](c1ccc(O)cc1)[C@H]2c1ccc(O)cc1 [Compound A, d-cis-3-(4-hydroxyphenyl)-4-(4-hydroxyphenyl)-8-methylchroman-7-ol]
[1]
  apoptosis (Annexin V+ cells): high levels of apoptosis
MOLM-13 AML cells [2]
  apoptosis (Annexin V+ cells): high levels of apoptosis
[3]
  apoptosis (Annexin V+ cells): high levels of apoptosis
[4]
  viability (percent of viable cells vs no drug control): dose-dependent decrease in viability
[5]
  viability (percent of viable cells vs no drug control): dose-dependent decrease in viability
MOLM-13 AML cells [6]
  viability (percent of viable cells vs no drug control): dose-dependent decrease in viability
[7]
  apoptosis (Annexin V+ cells): high levels of apoptosis
